According to patent publication US8952157B2, “Apoptosis-inducing agents for the treatment of cancer and immune and autoimmune diseases” (AbbVie Inc., priority 2008, dated 2015):

Biological target: GST-Bcl-2 (Homo sapiens (Human), UniProt P10415)
Experiment: Time Resolved-Fluorescence Resonance Energy Transfer (TR-FRET) Bcl-2 binding assay
Conditions: GST-Bcl-2 1 nM, F-Bak peptide probe 100 nM, Tb-anti-GST antibody 1 nM; Ki by Wang's equation
Summary of the method: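 Competition TR-FRET: GST-Bcl-2 with fluorescent Bak peptide probe and Tb-anti-GST antibody, compounds serially diluted from 50 μM (2× start, 10% DMSO).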

GST-Bcl-2, sequence (P10415 whole entry): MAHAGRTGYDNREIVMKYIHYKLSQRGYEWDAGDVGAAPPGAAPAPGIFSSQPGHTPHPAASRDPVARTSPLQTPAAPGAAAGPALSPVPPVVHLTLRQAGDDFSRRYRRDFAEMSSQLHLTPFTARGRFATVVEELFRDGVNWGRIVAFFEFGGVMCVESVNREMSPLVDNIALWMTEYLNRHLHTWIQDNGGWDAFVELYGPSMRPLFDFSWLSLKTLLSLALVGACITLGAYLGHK

Question: For `O=C(NS(=O)(=O)c1ccc(NCC2CCOCC2)c([N+](=O)[O-])c1)c1ccc(N2CCN(Cc3ccccc3-c3ccc(Cl)cc3)CC2)cc1Oc1cccc(-c2ccccc2)c1` [Example 86, 2-(1,1′-biphenyl-3-yloxy)-4-(4-((4′-chloro-1,1′-biphenyl-2-yl)methyl)piperazin-1-yl)-N-((3-nitro-4-((tetrahydro-2H-pyran-4-ylmethyl)amino)phenyl)sulfonyl)benzamide], which Ki is on record?
Answer: 5.26 nM

Question: How did the Ki turn out when `CN1CCC(Nc2ccc(S(=O)(=O)NC(=O)c3ccc(N4CCN(CC5=C(c6ccc(Cl)cc6)CC(C)(C)CC5)CC4)cc3Oc3ccc(O)cc3Cl)cc2[N+](=O)[O-])CC1` [Example 207, 2-(2-chloro-4-hydroxyphenoxy)-4-(4-{[2-(4-chlorophenyl)-4,4-dimethylcyclohex-1-en-1-yl]methyl}piperazin-1-yl)-N-({4-[(1-methylpiperidin-4-yl)amino]-3-nitrophenyl}sulfonyl)benzamide] was run?
Answer: 0.074 nM

Question: Which Ki does the source give for `CC1(C)CCC(CN2CCN(c3ccc(C(=O)NS(=O)(=O)c4ccc(NCC5CCC(F)(F)CC5)c([N+](=O)[O-])c4)c(Oc4cnc(N)c(Cl)c4)c3)CC2)=C(c2ccc(Cl)cc2)C1` [Example 396, 2-[(6-amino-5-chloropyridin-3-yl)oxy]-4-(4-{[2-(4-chlorophenyl)-4,4-dimethylcyclohex-1-en-1-yl]methyl}piperazin-1-yl)-N-[(4-{[(4,4-difluorocyclohexyl)methyl]amino}-3-nitrophenyl)sulfonyl]benzamide] here?
Answer: < 0.01 nM

Question: For `CN(C)CCCc1ccccc1Oc1cc(N2CCN(Cc3ccccc3-c3ccc(Cl)cc3)CC2)ccc1C(=O)NS(=O)(=O)c1ccc(NCC2CCOCC2)c([N+](=O)[O-])c1` [Example 28, 4-(4-((4′-chloro-1,1′-biphenyl-2-yl)methyl)piperazin-1-yl)-2-(2-(3-(dimethylamino)propyl)phenoxy)-N-((3-nitro-4-((tetrahydro-2H-pyran-4-ylmethyl)amino)phenyl)sulfonyl)benzamide], which Ki is on record?
Answer: 1.33 nM

Question: For `Cn1c(=O)[nH]c2cccc(Oc3cc(N4CCN(CC5=C(c6ccc(Cl)cc6)CC(C)(C)CC5)CC4)ccc3C(=O)NS(=O)(=O)c3ccc(NCC4CCOCC4)c([N+](=O)[O-])c3)c21` [Example 368, 4-(4-{[2-(4-chlorophenyl)-4,4-dimethylcyclohex-1-en-1-yl]methyl}piperazin-1-yl)-2-[(3-methyl-2-oxo-2,3-dihydro-1H-benzimidazol-4-yl)oxy]-N-({3-nitro-4-[(tetrahydro-2H-pyran-4-ylmethyl)amino]phenyl}sulfonyl)benzamide], which Ki is on record?
Answer: < 0.01 nM

Question: Which Ki does the source give for `CN1CCC(Nc2ccc(S(=O)(=O)NC(=O)c3ccc(N4CCN(CC5=C(c6ccc(Cl)cc6)CC(C)(C)CC5)CC4)cc3Oc3ccccc3C(=O)N(C)C)cc2[N+](=O)[O-])CC1` [Example 214, 2-(5-(4-((2-(4-chlorophenyl)-4,4-dimethylcyclohex-1-enyl)methyl)piperazin-1-yl)-2-(4-(1-methylpiperidin-4-ylamino)-3-nitrophenylsulfonylcarbamoyl)phenoxy)-N,N-dimethylbenzamide] here?
Answer: 0.221 nM

Question: `CC1(C)CCC(CN2CCN(c3ccc(C(=O)NS(=O)(=O)c4ccc(NCC5CCOCC5)c([N+](=O)[O-])c4)c(Oc4ccc(NCC(F)(F)F)nc4)c3)CC2)=C(c2ccc(Cl)cc2)C1` [Example 385, 4-(4-{[2-(4-chlorophenyl)-4,4-dimethylcyclohex-1-en-1-yl]methyl}piperazin-1-yl)-N-({3-nitro-4-[(tetrahydro-2H-pyran-4-ylmethyl)amino]phenyl}sulfonyl)-2-({6-[(2,2,2-trifluoroethyl)amino]pyridin-3-yl}oxy)benzamide] was tested. Which Ki did it give?
Answer: 49.3 nM

Question: Which Ki does the source give for `CC1(C)CCC(CN2CCN(c3ccc(C(=O)NS(=O)(=O)c4ccc(N[C@@H]5CCN(CC(F)F)C5)c([N+](=O)[O-])c4)c(Oc4cnc(N)c(Cl)c4)c3)CC2)=C(c2ccc(Cl)cc2)C1` [Example 353, 2-[(6-amino-5-chloropyridin-3-yl)oxy]-4-(4-{[2-(4-chlorophenyl)-4,4-dimethylcyclohex-1-en-1-yl]methyl}piperazin-1-yl)-N-[(4-{[(3R)-1-(2,2-difluoroethyl)pyrrolidin-3-yl]amino}-3-nitrophenyl)sulfonyl]benzamide] here?
Answer: 0.016 nM

Question: With `CC1(C)CCC(CN2CCN(c3ccc(C(=O)NS(=O)(=O)c4ccc(NC5CCN(C6CCOCC6)CC5)c([N+](=O)[O-])c4)c(Oc4ccccc4F)c3)CC2)=C(c2ccc(Cl)cc2)C1` [Example 124, 4-(4-{[2-(4-chlorophenyl)-4,4-dimethylcyclohex-1-en-1-yl]methyl}piperazin-1-yl)-2-(2-fluorophenoxy)-N-({3-nitro-4-[(1-tetrahydro-2H-pyran-4-ylpiperidin-4-yl)amino]phenyl}sulfonyl)benzamide] as the compound, how does the Ki read?
Answer: 0.033 nM

Question: With `CC1(C)CCC(CN2CCN(c3ccc(C(=O)NS(=O)(=O)c4ccc(NCC5COCCO5)c([N+](=O)[O-])c4)c(Oc4cnc(N)c(Cl)c4)c3)CC2)=C(c2ccc(Cl)cc2)C1` (centres unmarked) [Example 346, 2-[(6-amino-5-chloropyridin-3-yl)oxy]-4-(4-{[2-(4-chlorophenyl)-4,4-dimethylcyclohex-1-en-1-yl]methyl}piperazin-1-yl)-N-({4-[(1,4-dioxan-2-ylmethyl)amino]-3-nitrophenyl}sulfonyl)benzamide] as the compound, how does the Ki read?
Answer: < 0.01 nM

Question: How did the Ki turn out when `CC1(C)CCC(CN2CCN(c3ccc(C(=O)NS(=O)(=O)c4ccc(NCCCN5CCOCC5)c([N+](=O)[O-])c4)c(Oc4cccc(Cl)c4)c3)CC2)=C(c2ccc(Cl)cc2)C1` [Example 128, 2-(3-chlorophenoxy)-4-(4-{[2-(4-chlorophenyl)-4,4-dimethylcyclohex-1-en-1-yl]methyl}piperazin-1-yl)-N-({4-[(3-morpholin-4-ylpropyl)amino]-3-nitrophenyl}sulfonyl)benzamide] was run?
Answer: 0.064 nM

Question: For `C#Cc1cc(S(=O)(=O)NC(=O)c2ccc(N3CCN(CC4=C(c5ccc(Cl)cc5)CC(C)(C)OC4)CC3)cc2Oc2cc3cc[nH]c3cc2F)cnc1OCC1CCOCC1` [Example 323, 4-(4-{[4-(4-chlorophenyl)-6,6-dimethyl-5,6-dihydro-2H-pyran-3-yl]methyl}piperazin-1-yl)-N-{[5-ethynyl-6-(tetrahydro-2H-pyran-4-ylmethoxy)pyridin-3-yl]sulfonyl}-2-[(6-fluoro-1H-indol-5-yl)oxy]benzamide], which Ki is on record?
Answer: 3.48 nM

Question: `CN1CCN(Nc2ccc(S(=O)(=O)NC(=O)c3ccc(N4CCN(CC5=C(c6ccc(Cl)cc6)CC(C)(C)CC5)CC4)cc3Oc3cnc(N)c(Cl)c3)cc2[N+](=O)[O-])CC1` [Example 343, 2-[(6-amino-5-chloropyridin-3-yl)oxy]-4-(4-{[2-(4-chlorophenyl)-4,4-dimethylcyclohex-1-en-1-yl]methyl}piperazin-1-yl)-N-({4-[(4-methylpiperazin-1-yl)amino]-3-nitrophenyl}sulfonyl)benzamide] was tested. Which Ki did it give?
Answer: 0.009 nM

Question: Which Ki does the source give for `Nc1cccc(Oc2cc(N3CCN(Cc4ccccc4-c4ccc(Cl)cc4)CC3)ccc2C(=O)NS(=O)(=O)c2ccc(NCC3CCOCC3)c([N+](=O)[O-])c2)c1` [Example 19, 2-(3-aminophenoxy)-4-(4-((4′-chloro-1,1′-biphenyl-2-yl)methyl)piperazin-1-yl)-N-((3-nitro-4-((tetrahydro-2H-pyran-4-ylmethyl)amino)phenyl)sulfonyl)benzamide] here?
Answer: 1.68 nM

Question: Which Ki does the source give for `O=C(NS(=O)(=O)c1ccc(NCC2CCOCC2)c([N+](=O)[O-])c1)c1ccc(N2CCN(Cc3ccccc3-c3ccc(Cl)cc3)CC2)cc1Oc1cccc(N2CCOCC2)c1` [Example 89, 4-(4-((4′-chloro-1,1′-biphenyl-2-yl)methyl)piperazin-1-yl)-2-(3-morpholin-4-ylphenoxy)-N-((3-nitro-4-((tetrahydro-2H-pyran-4-ylmethyl)amino)phenyl)sulfonyl)benzamide] here?
Answer: 6.11 nM

Question: For `CC1(C)CCC(CN2CCN(c3ccc(C(=O)NS(=O)(=O)c4ccc(NCC5CCOCC5)c([N+](=O)[O-])c4)c(Oc4cnc(N)c(Br)c4)c3)CC2)=C(c2ccc(Cl)cc2)C1` [Example 350, 2-[(6-amino-5-bromopyridin-3-yl)oxy]-4-(4-{[2-(4-chlorophenyl)-4,4-dimethylcyclohex-1-en-1-yl]methyl}piperazin-1-yl)-N-({3-nitro-4-[(tetrahydro-2H-pyran-4-ylmethyl)amino]phenyl}sulfonyl)benzamide], which Ki is on record?
Answer: < 0.01 nM

Question: How did the Ki turn out when `Cc1cccc(Oc2cc(N3CCN(CC4=C(c5ccc(Cl)cc5)CC(C)(C)CC4)CC3)ccc2C(=O)NS(=O)(=O)c2ccc(NC3CCN(C)CC3)c([N+](=O)[O-])c2)c1` [Example 182, 4-(4-{[2-(4-chlorophenyl)-4,4-dimethylcyclohex-1-en-1-yl]methyl}piperazin-1-yl)-2-(3-methylphenoxy)-N-({4-[(1-methylpiperidin-4-yl)amino]-3-nitrophenyl}sulfonyl)benzamide] was run?
Answer: 0.172 nM

Question: For `CC1(C)CCC(CN2CCN(c3ccc(C(=O)NS(=O)(=O)c4ccc(NC5CCN(C6CC6)CC5)c([N+](=O)[O-])c4)c(Oc4cccc(F)c4F)c3)CC2)=C(c2ccc(Cl)cc2)C1` [Example 121, 4-(4-{[2-(4-chlorophenyl)-4,4-dimethylcyclohex-1-en-1-yl]methyl}piperazin-1-yl)-N-({4-[(1-cyclopropylpiperidin-4-yl)amino]-3-nitrophenyl}sulfonyl)-2-(2,3-difluorophenoxy)benzamide], which Ki is on record?
Answer: 0.081 nM

Question: Which Ki does the source give for `CN(C)CCCNc1ccc(S(=O)(=O)NC(=O)c2ccc(N3CCN(CC4=C(c5ccc(Cl)cc5)CC(C)(C)CC4)CC3)cc2Oc2cccc(F)c2)cc1[N+](=O)[O-]` [Example 138, 4-(4-{[2-(4-chlorophenyl)-4,4-dimethylcyclohex-1-en-1-yl]methyl}piperazin-1-yl)-N-[(4-{[3-(dimethylamino)propyl]amino}-3-nitrophenyl)sulfonyl]-2-(3-fluorophenoxy)benzamide] here?
Answer: 0.016 nM

Question: How did the Ki turn out when `CC1(C)CCC(CN2CCN(c3ccc(C(=O)NS(=O)(=O)c4ccc(NCC5(F)CCOCC5)c([N+](=O)[O-])c4)c(Oc4cnc(N)c(Cl)c4)c3)CC2)=C(c2ccc(Cl)cc2)C1` [Example 363, 2-[(6-amino-5-chloropyridin-3-yl)oxy]-4-(4-{[2-(4-chlorophenyl)-4,4-dimethylcyclohex-1-en-1-yl]methyl}piperazin-1-yl)-N-[(4-{[(4-fluorotetrahydro-2H-pyran-4-yl)methyl]amino}-3-nitrophenyl)sulfonyl]benzamide] was run?
Answer: < 0.01 nM
